Where “and” joins values, the source holds several entries; their conditions need not be identical. Identical values can stand only once.

Data set [1] has as its system melanoma tumor cell line WM989. Briefly: Combination with BRAF inhibitor Vemurafenib, viability. In kind it is cell-based, human. An excerpt: FIG. 6 is a line graph illustrating that PET-16 synergizes with the BRAF inhibitor Vemurafenib to reduce the viability of the melanoma tumor cell line WM989 (▪). WM989 cells treated singularly with Vemurafenib are depicted by (●). No synergy was detected between Vemurafenib and PES-Cl.

The target in the next data set is T1, ATP-HSP70 (WT) (Homo sapiens, UniProt P0DMV8, E110D).
T1 construct: Full-length recombinant proteins of HSP70 (aa 1-641) as well as DnaK (aa 1-638); His6 (N); made in house; host or cells: E. coli BL21 Star (DE3)
T1 sequence (P0DMV8 whole entry E110D, the tested form may be a part): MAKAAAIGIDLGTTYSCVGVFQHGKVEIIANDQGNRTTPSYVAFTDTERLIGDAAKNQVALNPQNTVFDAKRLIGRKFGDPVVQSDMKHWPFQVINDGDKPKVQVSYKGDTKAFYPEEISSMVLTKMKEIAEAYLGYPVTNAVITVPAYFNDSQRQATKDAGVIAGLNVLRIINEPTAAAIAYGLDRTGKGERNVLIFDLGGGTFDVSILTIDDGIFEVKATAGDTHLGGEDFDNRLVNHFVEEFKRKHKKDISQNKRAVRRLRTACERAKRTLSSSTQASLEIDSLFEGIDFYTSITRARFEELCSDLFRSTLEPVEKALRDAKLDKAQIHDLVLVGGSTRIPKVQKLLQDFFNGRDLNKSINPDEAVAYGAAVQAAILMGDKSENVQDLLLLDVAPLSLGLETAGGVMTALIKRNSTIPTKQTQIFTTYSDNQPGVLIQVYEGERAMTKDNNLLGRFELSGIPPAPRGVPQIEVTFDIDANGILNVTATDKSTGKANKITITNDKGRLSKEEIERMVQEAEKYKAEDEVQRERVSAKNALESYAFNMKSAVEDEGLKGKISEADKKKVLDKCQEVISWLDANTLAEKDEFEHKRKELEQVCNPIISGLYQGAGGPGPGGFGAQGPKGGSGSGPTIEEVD
Briefly: ITC binding to ATP-bound full-length HSP70. The following applies: wild-type full-length ATP-bound HSP70. From the text:
The human stress-inducible HSP70 (residues 1-641 or 386-616 of SEQ ID NO: 2) and E. coli DnaK (residues 1-638, 389-607, or 393-507 of SEQ ID NO: 4) were cloned into the pET25 vector (EMD Millipore Chemicals, Inc., Billerica, Mass., USA) between the NdeI and XhoI restriction sites. The full-length HSP70 and DnaK mutants were constructed by PCR-based site-directed mutagenesis using the QuikChange™ Site-Directed Mutagenesis Kit (Agilent Technologies, Inc., Santa Clara, Calif., USA). All plasmid inserts were verified by DNA sequencing. All HSP70 and DnaK variants were produced with a N-terminal His6-tag in the E. coli BL21 Star (DE3) strain (Invitrogen catalog number C6010-03). The resulting strains were grown at 37° C. in LB medium containing 50 μg/mL of carbenicillin (Sigma-Aldrich Co., St. Louis, Mo., USA). At an OD600 about 0.3 to about 0.5, protein expression was induced with 0.5 mM isopropyl-β-D-thiogalactopyranoside (IPTG), and cells were subsequently grown at 25° C. for about 16 h. Cells were collected by centrifugation and resuspended in the Bugbuster® Master Mix (EMD Millipore Chemicals catalog number 71456-4), supplemented with protease inhibitors, 1 mM diethiothreitol (DTT) and 20 mM imidazole. The His6-tagged fusion proteins were isolated on Ni^2+-chelating resins (Ni-NTA Superflow, Qiagen catalog number 30410) by standard procedures. When necessary, size-exclusion chromatography on a Superdex® 200 or a Superose® 6 10/300 GL columns (GE Healthcare) analytical column pre-equilibrated with 1× Dulbecco's Phosphate Buffered Saline (DPBS—Invitrogen 14190-136), 1 mM Tris-HCl (pH 7.4) or 10 mM Tris-HCl (pH 7) was used as the final purification step. The purified DnaK proteins were dialyzed thoroughly against 1× DPBS with 5 mM DTT at 4° C., for crystallization trials involving the small molecule inhibitor PET-16. For isothermal titration calorimetry studies, all HSP70 and DnaK variants were dialyzed extensively against the buffers as noted below under the section entitled “Isothermal Titration calorimetry Studies”. […]

For a further data set, the target named is T2, ADP-HSP70 (WT, aa 1-641) (Homo sapiens, UniProt P0DMV8, E110D).
T2 construct: Full-length recombinant proteins of HSP70 (aa 1-641) as well as DnaK (aa 1-638); His6 (N); made in house; host or cells: E. coli BL21 Star (DE3)
T2 sequence (P0DMV8 whole entry E110D, the tested form may be a part): as above
Briefly: ITC binding to ADP-bound full-length HSP70. The following applies: ITC, wild-type full-length ADP-bound HSP70. From the text: The human stress-inducible HSP70 (residues 1-641 or 386-616 of SEQ ID NO: 2) and E. coli DnaK (residues 1-638, 389-607, or 393-507 of SEQ ID NO: 4) were cloned into the pET25 vector (EMD Millipore Chemicals, Inc., Billerica, Mass., USA) between the NdeI and XhoI restriction sites. The full-length HSP70 and DnaK mutants were constructed by PCR-based site-directed mutagenesis using the QuikChange™ Site-Directed Mutagenesis Kit (Agilent Technologies, Inc., Santa Clara, Calif., USA). All plasmid inserts were verified by DNA sequencing. All HSP70 and DnaK variants were produced with a N-terminal His6-tag in the E. coli BL21 Star (DE3) strain (Invitrogen catalog number C6010-03). The resulting strains were grown at 37° C. in LB medium containing 50 μg/mL of carbenicillin (Sigma-Aldrich Co., St. Louis, Mo., USA). At an OD600 about 0.3 to about 0.5, protein expression was induced with 0.5 mM isopropyl-β-D-thiogalactopyranoside (IPTG), and cells were subsequently grown at 25° C. for about 16 h. Cells were collected by centrifugation and resuspended in the Bugbuster® Master Mix (EMD Millipore Chemicals catalog number 71456-4), supplemented with protease inhibitors, 1 mM diethiothreitol (DTT) and 20 mM imidazole. The His6-tagged fusion proteins were isolated on Ni^2+-chelating resins (Ni-NTA Superflow, Qiagen catalog number 30410) by standard procedures. When necessary, size-exclusion chromatography on a Superdex® 200 or a Superose® 6 10/300 GL columns (GE Healthcare) analytical column pre-equilibrated with 1× Dulbecco's Phosphate Buffered Saline (DPBS—Invitrogen 14190-136), 1 mM Tris-HCl (pH 7.4) or 10 mM Tris-HCl (pH 7) was used as the final purification step. The purified DnaK proteins were dialyzed thoroughly against 1× DPBS with 5 mM DTT at 4° C., for crystallization trials involving the small molecule inhibitor PET-16. For isothermal titration calorimetry studies, all HSP70 and DnaK variants were dialyzed extensively against the buffers as noted below under the section entitled “Isothermal Titration calorimetry Studies”. The dialyzed proteins were subsequently microcentrifugated at 15,000×g for 5 min at 4° C. and aliquots of the soluble proteins were stored at −80° C.
(§1) All ITC experiments were performed using a MicroCal VP-ITC isothermal titration calorimeter (MicroCal). Both full-length HSP70 and DnaK proteins and DnaK (aa 393-507) proteins were prepared in 1 mM Tris-HCl (pH 7.4) buffer containing 3% dimethylsulfoxide (DMSO). The HSP70 (aa 386-616) protein was prepared in buffer containing 3% DMSO and 10 mM Tris-HCl, pH 7. The syringe was loaded with purified protein in either 1 mM Tris-HCl (pH 7.4) buffer containing 3% DMSO or 10 mM Tris-HCl (pH 7) buffer containing 3% DMSO. The sample cell of the calorimeter was loaded with PES, PET-16 or NRLLLTG (SEQ ID NO: 7) prepared in the same buffer. All solutions were degassed for 5 min.
The titrations involving the full-length purified proteins were performed at 25° C. with injection volumes of 12 μL and a spacing of 300 s. The titrations involving the purified HSP70 (aa 386-616) and DnaK (aa 393-507) were performed at 42° C. with injection volumes of 12 μL and a spacing of 300 s. Heat from the pre-injection was not used during fitting. The data were fit using a one-site binding model available in the Origin® ITC data analysis software (MicroCal Origin® V5.0, MicroCal Software, Northampton, Mass.). Error values obtained from the MicroCal Origin® V5.0 software were averaged and reported. […]

A further data set concerns tumor cells. In words: Cytotoxic effect on tumor cells. In kind it is cell-based. The following applies: in words. An excerpt: FIGS. 1A to 1G provide the PET-16 and analogs thereof. FIGS. 1A-1C provide the chemical structures of PES, Biotin-PES, and PES-Cl, respectively. The chemical names and the major functional groups are indicated. […] The chemical names are indicated. FIGS. 1E-1G are the chemical structures of PET-16, PET-3C and PET-DR, respectively. The chemical names and the major functional groups are indicated.

The target of a further data set is T3, DnaK SBD (Escherichia coli, UniProt P0A6Y8).
T3 construct: The titrations involving the purified HSP70 (aa 386-616) and DnaK (aa 393-507) were performed at 42° C; His6 (N); made in house; host or cells: E. coli BL21 Star (DE3)
T3 sequence (P0A6Y8 393-507): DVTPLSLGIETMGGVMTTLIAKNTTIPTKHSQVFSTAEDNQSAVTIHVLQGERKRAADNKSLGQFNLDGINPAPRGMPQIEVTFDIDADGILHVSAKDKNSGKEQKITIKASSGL
In words: ITC binding to DnaK SBD. The following applies: in words. The arrangement: species or system E. coli. As to the method: as §1
The titrations involving the full-length purified proteins were performed at 25° C. with injection volumes of 12 μL and a spacing of 300 s. The titrations involving the purified HSP70 (aa 386-616) and DnaK (aa 393-507) were performed at 42° C. with injection volumes of 12 μL and a spacing of 300 s. Heat from the pre-injection was not used during fitting. The data were fit using a one-site binding model available in the Origin® ITC data analysis software (MicroCal Origin® V5.0, MicroCal Software, Northampton, Mass.). Error values obtained from the MicroCal Origin® V5.0 software were averaged and reported.

The target in another data set is T4, HSP70 (aa 386-616) (Homo sapiens, UniProt P0DMV8).
T4 construct: His6 (N); made in house; host or cells: E. coli BL21 Star (DE3)
T4 sequence (P0DMV8 386-616): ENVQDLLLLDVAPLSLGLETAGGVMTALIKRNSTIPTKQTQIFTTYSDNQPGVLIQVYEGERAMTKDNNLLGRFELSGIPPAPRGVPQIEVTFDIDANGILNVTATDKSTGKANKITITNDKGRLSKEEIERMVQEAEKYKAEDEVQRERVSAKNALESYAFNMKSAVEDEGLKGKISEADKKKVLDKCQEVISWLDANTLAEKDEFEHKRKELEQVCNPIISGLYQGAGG
In words: ITC binding to C-terminal domain of HSP70. The following applies: in words. From the text:
The human stress-inducible HSP70 (residues 1-641 or 386-616 of SEQ ID NO: 2) and E. coli DnaK (residues 1-638, 389-607, or 393-507 of SEQ ID NO: 4) were cloned into the pET25 vector (EMD Millipore Chemicals, Inc., Billerica, Mass., USA) between the NdeI and XhoI restriction sites. The full-length HSP70 and DnaK mutants were constructed by PCR-based site-directed mutagenesis using the QuikChange™ Site-Directed Mutagenesis Kit (Agilent Technologies, Inc., Santa Clara, Calif., USA). All plasmid inserts were verified by DNA sequencing. All HSP70 and DnaK variants were produced with a N-terminal His6-tag in the E. coli BL21 Star (DE3) strain (Invitrogen catalog number C6010-03). The resulting strains were grown at 37° C. in LB medium containing 50 μg/mL of carbenicillin (Sigma-Aldrich Co., St. Louis, Mo., USA). At an OD600 about 0.3 to about 0.5, protein expression was induced with 0.5 mM isopropyl-β-D-thiogalactopyranoside (IPTG), and cells were subsequently grown at 25° C. for about 16 h. Cells were collected by centrifugation and resuspended in the Bugbuster® Master Mix (EMD Millipore Chemicals catalog number 71456-4), supplemented with protease inhibitors, 1 mM diethiothreitol (DTT) and 20 mM imidazole. The His6-tagged fusion proteins were isolated on Ni^2+-chelating resins (Ni-NTA Superflow, Qiagen catalog number 30410) by standard procedures. […]

In another data set the test system is E. coli DH5α. In words: Growth of E. coli DH5α at 43° C. In kind it is cell-based. The following applies: 6 h at 43° C. The method, then:
FIGS. 2A-2D illustrate the cytotoxicity of PET-16 to human tumor cells and its inhibition on E. coli growth. FIG. 2A is a line graph with data obtained from MTT assays of human melanoma cell lines treated with the indicated concentrations of PES or PET-16 for 72 h. The corresponding cell survival is normalized to vehicle (DMSO) treatment. Average and standard deviation (s.d.) from three independent experiments are shown. FIG. 2B are bar graphs of human melanoma (A875) cells and nontransformed human (IMR90) fibroblasts that were treated with DMSO, 10 μM PES or 10 μM PET-16 for 24 h. […] FIG. 2C is a line graph illustrating the growth of E. coli DH5α treated with different concentrations of PES or PET-16 for 6 h at 43° C. Error bars represent the s.d. of four independent experiments. FIG. 2D is a bar graph illustrating the growth of E. coli DH5α treated with DMSO, 30 μM PET-16 or 30 μM TPP for 6 h at 43° C. Error bars represent the s.d. of four independent experiments.
FIGS. 9A-9H illustrate that PET-16 binds directly to ADP-bound HSP70 and is cytotoxic to human tumor cells. FIGS. 9A-9C are ITC assays of the interaction of PET-3C with purified human HSP70-ADP (A), human HSP70-ATP (B) and DnaK-ADP (C) proteins. The data are representative of three independent experiments. FIG. 9D is a line graph of an MTT assay of the human melanoma cell line 1205 Lu treated with the indicated concentrations of PET-16 (---) or PET-3C (-) for 72 h. The corresponding cell survival is normalized to the DMSO-treatment. Average and standard deviation (s.d.) from three independent experiments are shown. FIG. 9E is a line graph illustrating the growth of E. coli DH5α strain treated with different concentrations of PET-16 (black) or PET-3C (gray) for 6 h at 43° C. Error bars represent the s.d. of four independent experiments. FIG. 9F is a bar graph illustrating the growth of E. coli DH5α treated with DMSO, 30 μM PET-16, 30 μM PET-3C or 30 μM TPP for 6 h at 43° C. Error bars represent the s.d. of four independent experiments. […]

Regarding “2-(3-chlorophenyl) ethynesulfonamide [PES-Cl, reference compound]”, the “synergy with PLX4032 (Vemurafenib)” value in data set [1] is “did not synergize”.

The term Kd denotes the free concentration of one partner at which half of the binding sites on the other are occupied at equilibrium, for simple one-to-one binding. `CC(C)C[C@H](NC(=O)[C@H](CC(C)C)NC(=O)[C@H](CCCNC(=N)N)NC(=O)[C@@H](N)CC(N)=O)C(=O)N[C@@H](CC(C)C)C(=O)N[C@H](C(=O)NCC(=O)O)[C@@H](C)O` [NRLLLTG, reference compound]: the Kd was 1.25 ± 0.015 mM on ATP-HSP70 (WT); ~10 µM and 10 µM at ADP-HSP70 (WT, aa 1-641).

Take `c1ccc(P(c2ccccc2)c2ccccc2)cc1` [TPP, triphenylphosphine]: the “cytotoxicity for tumor cells” value in the data set with tumor cells is given as “little discernible effect”. Besides, at DnaK SBD, the “binding to DnaK SBD” value was “does not bind”. Further, the “binding to HSP70 SBD” value on HSP70 (aa 386-616) is given as “does not bind”. For the same compound, in the data set on E. coli DH5α, the “effect on growth of E. coli” value is “no negative effect”.

The values above are taken from US10010560B2, “Small molecule HSP70 inhibitors” (THE TRUSTEES OF THE UNIVERSITY OF PENNSYLVANIA, priority 2014, dated 2018).
